In patent US9708278B2, “Substituted 4-benzyl-3,4-dihydro-2H-benzo[B][1,4]oxazine-2-carboxamide analogs as positive allosteric modulators of muscarinic acetycholine receptor M1” (Vanderbilt University, priority 2013, dated 2017):

target: T1, mAChR M1 (UniProt P08482); experiment: mAChR M1 cell-based functional assay (calcium mobilization, PAM mode); details: positive allosteric modulator activity: concentration-dependent increase in the EC20 acetylcholine response; calcium flux in CHO-K1 cells stably expressing mAChR M1
T1 sequence (P08482 1-460): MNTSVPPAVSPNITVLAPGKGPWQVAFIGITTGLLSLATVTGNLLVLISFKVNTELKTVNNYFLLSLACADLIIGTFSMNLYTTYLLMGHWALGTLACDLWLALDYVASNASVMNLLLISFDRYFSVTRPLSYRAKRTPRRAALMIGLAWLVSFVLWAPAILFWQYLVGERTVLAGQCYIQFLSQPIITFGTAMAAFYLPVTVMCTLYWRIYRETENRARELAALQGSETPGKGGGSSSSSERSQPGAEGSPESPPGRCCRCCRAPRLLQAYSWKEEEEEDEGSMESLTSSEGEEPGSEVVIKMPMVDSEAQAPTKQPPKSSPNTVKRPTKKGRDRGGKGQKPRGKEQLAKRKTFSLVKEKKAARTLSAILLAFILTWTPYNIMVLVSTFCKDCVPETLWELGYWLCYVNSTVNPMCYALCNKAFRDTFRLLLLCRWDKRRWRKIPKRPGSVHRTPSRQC
Text: The calcium mobilization assay was also used to determine “efficacy”.
N-Substituted 3,4-dihydro-benzo[b][1,4]oxazine-2-carboxamide analogs were synthesized as described above. […] The compound number corresponds to the compound numbers used in Table I.

Row | SMILES | EC50 [µM]
1 | O=C(Nc1ccccc1F)C1CN(Cc2ccc(-n3cccn3)cc2)c2ccccc2O1 (stereo not drawn) [Compound B55] | ≥ 10

same assay, conditions: positive allosteric modulator activity: concentration-dependent increase in the EC20 acetylcholine response; calcium flux in CHO-K1 cells stably expressing mAChR M1; read-out: EC50

Row | SMILES | EC50 [µM]
2 | COc1ccc(CN2C[C@H](C(=O)N[C@H]3CCCC[C@@H]3O)Oc3ccccc32)cc1 (single isomer, unassigned) [Compound B9] | 7.75
3 | COc1ccc(CN2C[C@@H](C(=O)N[C@H]3CCCC[C@@H]3O)Oc3ccccc32)cc1 (single isomer, unassigned) [Compound B10] | ≥ 10
4 | CC(C)C[C@@H](CO)NC(=O)[C@@H]1CN(Cc2ccc(-n3cccn3)cc2)c2ccccc2O1 (single isomer, unassigned) [Compound B19] | 3.69
5 | CC(C)C[C@@H](CO)NC(=O)[C@H]1CN(Cc2ccc(-n3cccn3)cc2)c2ccccc2O1 (single isomer, unassigned) [Compound B20] | 2.07
6 | O=C(N[C@H]1CCCC[C@@H]1O)C1CN(Cc2ccc(-n3cccn3)cc2)c2ccccc2O1 (single isomer, unassigned) [Compound B29] | 0.573
7 | O=C(N[C@H]1CCCC[C@@H]1O)C1CN(Cc2ccc(-n3cccn3)cc2)c2ccccc2O1 (single isomer, unassigned) [Compound B41] | 0.199
8 | O=C(N[C@H]1CCCC[C@@H]1O)C1CN(Cc2ccc(-n3cccn3)cc2)c2ccccc2O1 (stereo partly drawn) [Compound B1, 4-(4-(1H-pyrazol-1-yl)benzyl)-N-((1S,2S)-2-hydroxycyclohexyl)-3,4-dihydro-2H-benzo[b][1,4]oxazine-2-carboxamide] | 0.302
9 | O=C(Nc1ncccc1O)C1CN(Cc2ccc(-n3cccn3)cc2)c2ccccc2O1 (stereo not drawn) [Compound B2, 4-(4-(1H-pyrazol-1-yl)benzyl)-N-(3-hydroxypyridin-2-yl)-3,4-dihydro-2H-benzo[b][1,4]oxazine-2-carboxamide] | 0.543
10 | O=C(NC1COC1)C1CN(Cc2ccc(-n3cccn3)cc2)c2ccccc2O1 (stereo not drawn) [Compound B3] | ≥ 10
11 | O=C(N[C@H]1CCCC[C@@H]1O)C1CN(Cc2c(F)cc(Br)cc2F)c2ccccc2O1 (stereo partly drawn) [Compound B4, 4-(4-bromo-2,6-difluorobenzyl)-N-((1S,2S)-2-hydroxycyclohexyl)-3,4-dihydro-2H-benzo[b][1,4]oxazine-2-carboxamide] | > 30
12 | COc1ccc(CN2CC(C(=O)N[C@H]3CCCC[C@@H]3O)Oc3ccccc32)cc1 (stereo partly drawn) [Compound B5] | ≥ 10
13 | Cn1cc2c(-c3cc(F)c(CN4CC(C(=O)N[C@H]5CCCC[C@@H]5O)Oc5ccccc54)c(F)c3)cccc2n1 (stereo partly drawn) [Compound B6, 4-(2,6-difluoro-4-(2-methyl-2H-indazol-4-yl)benzyl)-N-((1S,2S)-2-hydroxycyclohexyl)-3,4-dihydro-2H-benzo[b][1,4]oxazine-2-carboxamide] | ≥ 10
14 | Cn1cc(-c2ccc(CN3CC(C(=O)N[C@H]4CCCC[C@@H]4O)Oc4ccccc43)cc2)cn1 (stereo partly drawn) [Compound B7] | > 30
15 | O=C(N[C@H]1CCCC[C@@H]1O)C1CN(Cc2ccc(Cl)nc2)c2ccccc2O1 (stereo partly drawn) [Compound B8] | 4.21
16 | CC(C)CNC(=O)C1CN(Cc2ccc(-n3cccn3)cc2)c2ccccc2O1 (stereo not drawn) [Compound B11] | 3.56
17 | O=C(NCc1ccccn1)C1CN(Cc2ccc(-n3cccn3)cc2)c2ccccc2O1 (stereo not drawn) [Compound B12] | 4.82
18 | COC(=O)CNC(=O)C1CN(Cc2ccc(-n3cccn3)cc2)c2ccccc2O1 (stereo not drawn) [Compound B13] | 1.44
19 | O=C(Nc1ccccc1O)C1CN(Cc2ccc(-n3cccn3)cc2)c2ccccc2O1 (stereo not drawn) [Compound B14] | ≥ 10
20 | O=C(Nc1ccccn1)C1CN(Cc2ccc(-n3cccn3)cc2)c2ccccc2O1 (stereo not drawn) [Compound B15] | ≥ 10

Row | SMILES | EC50 [µM]
21 | CC(C)(CO)NC(=O)C1CN(Cc2ccc(-n3cccn3)cc2)c2ccccc2O1 (stereo not drawn) [Compound B16] | > 30
22 | O=C(NC1CC1)C1CN(Cc2ccc(-n3cccn3)cc2)c2ccccc2O1 (stereo not drawn) [Compound B17] | ≥ 10
23 | O=C(NC1CCCCC1)C1CN(Cc2ccc(-n3cccn3)cc2)c2ccccc2O1 (stereo not drawn) [Compound B18] | ≥ 10
24 | CNC(=O)C1CN(Cc2ccc(-n3cccn3)cc2)c2ccccc2O1 (stereo not drawn) [Compound B21] | 5.36
25 | CC(C)NC(=O)C1CN(Cc2ccc(-n3cccn3)cc2)c2ccccc2O1 (stereo not drawn) [Compound B22] | ≥ 10
26 | O=C(NC1CCOC1)C1CN(Cc2ccc(-n3cccn3)cc2)c2ccccc2O1 (stereo not drawn) [Compound B23] | ≥ 10
27 | O=C(NCCCN1CCOCC1)C1CN(Cc2ccc(-n3cccn3)cc2)c2ccccc2O1 (stereo not drawn) [Compound B24] | ≥ 10
28 | COc1ccc(OCCNC(=O)C2CN(Cc3ccc(-n4cccn4)cc3)c3ccccc3O2)cc1 (stereo not drawn) [Compound B25] | > 30
29 | O=C(NCC(F)(F)F)C1CN(Cc2ccc(-n3cccn3)cc2)c2ccccc2O1 (stereo not drawn) [Compound B26] | > 30
30 | O=C(NC1CCC1)C1CN(Cc2ccc(-n3cccn3)cc2)c2ccccc2O1 (stereo not drawn) [Compound B27] | 7.66
31 | O=C(NC1CCCC1)C1CN(Cc2ccc(-n3cccn3)cc2)c2ccccc2O1 (stereo not drawn) [Compound B28] | ≥ 10
32 | O=C(NC1CCOCC1)C1CN(Cc2ccc(-n3cccn3)cc2)c2ccccc2O1 (stereo not drawn) [Compound B30] | 4.43
33 | O=C(Nc1ccccc1)C1CN(Cc2ccc(-n3cccn3)cc2)c2ccccc2O1 (stereo not drawn) [Compound B31] | > 30
34 | NC(=O)C1CN(Cc2ccc(-n3cccn3)cc2)c2ccccc2O1 (stereo not drawn) [Compound B32] | 3.3
35 | O=C(NCCO)C1CN(Cc2ccc(-n3cccn3)cc2)c2ccccc2O1 (stereo not drawn) [Compound B33] | 6.54
36 | CC1(NC(=O)C2CN(Cc3ccc(-n4cccn4)cc3)c3ccccc3O2)COC1 (stereo not drawn) [Compound B34] | > 30
37 | C[C@@H](CO)NC(=O)C1CN(Cc2ccc(-n3cccn3)cc2)c2ccccc2O1 (stereo partly drawn) [Compound B35] | 4.66
38 | CC(C)(O)CNC(=O)C1CN(Cc2ccc(-n3cccn3)cc2)c2ccccc2O1 (stereo not drawn) [Compound B36] | 3.8
39 | O=C(NC1CCCOC1)C1CN(Cc2ccc(-n3cccn3)cc2)c2ccccc2O1 (stereo not drawn) [Compound B37] | ≥ 10

Row | SMILES | EC50 [µM]
40 | O=C(NCCOc1ccccc1F)C1CN(Cc2ccc(-n3cccn3)cc2)c2ccccc2O1 (stereo not drawn) [Compound B38] | > 30
41 | COc1ccccc1OCCNC(=O)C1CN(Cc2ccc(-n3cccn3)cc2)c2ccccc2O1 (stereo not drawn) [Compound B39] | > 30
42 | O=C(NCCOc1ccc(F)cc1)C1CN(Cc2ccc(-n3cccn3)cc2)c2ccccc2O1 (stereo not drawn) [Compound B40] | > 30
43 | O=C(N[C@H]1CCCC[C@@H]1O)C1CN(Cc2ccc(C(F)(F)F)nc2)c2ccccc2O1 (stereo partly drawn) [Compound B42] | 4.7
44 | COCC(C)NC(=O)C1CN(Cc2ccc(-n3cccn3)cc2)c2ccccc2O1 (stereo not drawn) [Compound B43] | ≥ 10
45 | O=C(N[C@@H](CO)[C@H](O)c1ccccc1)C1CN(Cc2ccc(-n3cccn3)cc2)c2ccccc2O1 (stereo partly drawn) [Compound B44] | ≥ 10
46 | O=C(Nc1cccc2cn[nH]c12)C1CN(Cc2ccc(-n3cccn3)cc2)c2ccccc2O1 (stereo not drawn) [Compound B45] | 7.38
47 | O=C(NCC(O)C(F)(F)F)C1CN(Cc2ccc(-n3cccn3)cc2)c2ccccc2O1 (stereo not drawn) [Compound B46] | 2.28
48 | O=C(Nc1ccn[nH]1)C1CN(Cc2ccc(-n3cccn3)cc2)c2ccccc2O1 (stereo not drawn) [Compound B47] | > 30
49 | COc1cccnc1NC(=O)C1CN(Cc2ccc(-n3cccn3)cc2)c2ccccc2O1 (stereo not drawn) [Compound B48] | 2.4
50 | O=C(Nc1ncc(F)cc1F)C1CN(Cc2ccc(-n3cccn3)cc2)c2ccccc2O1 (stereo not drawn) [Compound B49] | ≥ 10
51 | O=C(Nc1ncccc1F)C1CN(Cc2ccc(-n3cccn3)cc2)c2ccccc2O1 (stereo not drawn) [Compound B50] | 2.57
52 | COCCNC(=O)C1CN(Cc2ccc(-n3cccn3)cc2)c2ccccc2O1 (stereo not drawn) [Compound B51] | 7.65
53 | O=C(NCC(F)F)C1CN(Cc2ccc(-n3cccn3)cc2)c2ccccc2O1 (stereo not drawn) [Compound B52] | ≥ 10
54 | Cc1ccc(NC(=O)C2CN(Cc3ccc(-n4cccn4)cc3)c3ccccc3O2)c(O)c1 (stereo not drawn) [Compound B53] | > 30
55 | O=C(N[C@H]1CCC[C@@H]1O)C1CN(Cc2ccc(-n3cccn3)cc2)c2ccccc2O1 (stereo partly drawn) [Compound B54] | 1.15
56 | Cc1ccccc1NC(=O)C1CN(Cc2ccc(-n3cccn3)cc2)c2ccccc2O1 (stereo not drawn) [Compound B56] | ≥ 10
57 | O=C(N[C@H]1CCCC[C@@H]1O)C1CN(Cc2ccc(C(F)(F)F)nc2)c2cccc(F)c2O1 (stereo partly drawn) [Compound B57, 8-fluoro-N-((1S,2S)-2-hydroxycyclohexyl)-4-((6-(trifluoromethyl)pyridin-3-yl)methyl)-3,4-dihydro-2H-benzo[b][1,4]oxazine-2-carboxamide] | 3.6
